Literature values, collected in patent publication US11224572B1, “Stable oral liquid composition of terazosin” (Novitium Pharma LLC, priority 2020, dated 2022).
Counter-ions that a name gives are not always drawn.

Experiments:
alpha-1 adrenoceptor [1] = settings: in animals
[2] = patients treated with terazosin
alpha-1 adrenoceptor [3] = test system: alpha-1 adrenoceptor

Q: For `COc1cc2nc(N3CCN(C(=O)C4CCCO4)CC3)nc(N)c2cc1OC` (racemic) [terazosin, (RS)-Piperazine, 1-(4-amino-6,7-dimethoxy-2-quinazolinyl)-4-[(tetrahydro-2-furanyl)carbonyl]-, monohydrochloride], which “effect on blood pressure” value (alpha-1 adrenoceptor [1]) is on record?
A: causes a decrease in blood pressure by decreasing total peripheral vascular resistance

Q: What about the “patients experiencing an increase in urinary flow and improvement in symptoms of BPH” value [2] of the same molecule?
A: approximately 70%

Q: And the “time within which blood pressure decreases following oral administration” value (alpha-1 adrenoceptor [3])?
A: ≤ 15 min
